In brackets after ≈: the same amount, converted by molar mass. Several values for one entry are separate records, joined by “and”; a condition that tells them apart may be missing. Identical values can stand only once. Like-named read-outs stand apart in the source and are kept apart here.
Columns and labels:
[1] = Lipophilicity determination by HPLC; type: physicochemical; details: for log D6.5: HPLC C18, MeOH 72%/acetate-buffered saline pH 6.5 28%; for log D7.4: HPLC C18, MeOH 72%/acetate-buffered saline pH 7.4 28%; for log k: logarithm of capacity factor, HPLC C18, MeOH 72%/H2O 28%
Summary of the method: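 Symmetry C18 column at 40 °C, isocratic MeOH 72% with 28% water for capacity factor k, or with 28% acetate-buffered saline pH 7.4 or 6.5 for D7.4/D6.5. UV 210 nm; dead time from KI. k and D calculated as (tR − tD)/tD; triplicate runs.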

M. smegmatis ATCC 700084 = assay: In vitro antimycobacterial evaluation, MIC (broth dilution micro-method); type: cell-based, Mycobacterium smegmatis
[2] = tested on: human monocytic leukemia cell line THP-1; assay: In vitro cell viability analysis (CCK-8); type: cell-based; details: ± SD, n = 6, medium with 10% FBS, 24 h
Summary of the method: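 THP-1 cells in RPMI 1640 with 10% FBS exposed to DMSO-dissolved compounds for 24 h at 37 °C, 5% CO2, in complete medium. Viability read by CCK-8.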

S. aureus ATCC 29123 = assay: Crystal violet uptake (membrane permeability); details: 4× MIC, 1 h; compared to growth control and 1% Tween 20
S. aureus ATCC 29213 = assay: MTT assay of bacterial viability (respiration)
[3] = tested on: Mycobacterium tuberculosis H37Ra/ATCC 25177; assay: In vitro antimycobacterial evaluation, MIC (alamarBlue); details: MT; 14 days, 37 °C
[4] = tested on: Staphylococcus aureus ATCC 29213; assay: In vitro antibacterial evaluation, MIC by microtitration broth method; details: ATCC29213, 24 h
[5] = tested on: methicillin-resistant S. aureus SA 3202; assay: as above; details: Staphylococcus aureus, 24 h
[6] = tested on: methicillin-resistant S. aureus SA 630; assay: as above; details: Staphylococcus aureus, 24 h
[7] = tested on: methicillin-resistant S. aureus 63718; assay: as above; details: Staphylococcus aureus, 24 h
[8] = tested on: Enterococcus faecalis ATCC 29212; assay: as above; details: ATCC29212, 24 h
[9] = tested on: vancomycin-resistant E. faecalis VRE 342B; assay: as above; details: Enterococcus faecalis, 24 h
[10] = tested on: vancomycin-resistant E. faecalis VRE 368; assay: as above; details: Enterococcus faecalis, 24 h
[11] = tested on: vancomycin-resistant E. faecalis VRE 725B; assay: as above; details: Enterococcus faecalis, 24 h
[12] = tested on: Staphylococcus aureus ATCC 29213; assay: Determination of minimum bactericidal concentrations (agar aliquot subculture); details: ATCC29213
[13] = tested on: methicillin-resistant S. aureus SA 3202; assay: as above; details: Staphylococcus aureus
[14] = tested on: methicillin-resistant S. aureus SA 630; assay: as above; details: Staphylococcus aureus
[15] = tested on: methicillin-resistant S. aureus 63718; assay: as above; details: Staphylococcus aureus
[16] = tested on: Enterococcus faecalis ATCC 29212; assay: as above; details: ATCC29212
[17] = tested on: vancomycin-resistant E. faecalis VRE 342B; assay: as above; details: Enterococcus faecalis
[18] = tested on: vancomycin-resistant E. faecalis VRE 368; assay: as above; details: Enterococcus faecalis
[19] = tested on: vancomycin-resistant E. faecalis VRE 725B; assay: as above; details: Enterococcus faecalis
Bacillus cereus = details: cited from earlier work
Clostridium perfringens = details: cited from earlier work
Mycobacterium kansasii = details: cited from earlier work
M. smegmatis = details: cited from earlier work
[20] = tested on: methicillin-resistant S. aureus 63718; design: method as in PMID 26079401; details: MRSA 63718 (VA2-MRSA); cited from earlier work
[21] = Mycolicibacterium smegmatis, ATCC700084, 72 h

| Compound | log D6.5 [1] | log D7.4 [1] | log k [1] | MIC (M. smegmatis ATCC 700084; [21]) | IC50 [2] | MIC [3] | MIC [4] | MIC [5] | MIC [6] | MIC [7] | MIC [8] | MIC [9] | MIC [10] | MIC [11] | MBC [12] | MBC [13] | MBC [14] | MBC [15] | MBC [16] | MBC [17] | further results |
| --- | --- | --- | --- | --- | --- | --- | --- | --- | --- | --- | --- | --- | --- | --- | --- | --- | --- | --- | --- | --- | --- |
| CSCC[C@H](NC(=O)c1cc(Cl)ccc1O)C(=O)Nc1ccc(C(F)(F)F)cc1 [3e, 5-Chloro-2-hydroxy-N-[(2S)-4-(methylsulfanyl)-1-oxo-1-{[4-(trifluoromethyl)phenyl]amino}butan-2-yl]benzamide] | 1.021 | 0.963 | 1.076 | 35.8 µM (≈ 16 µg/mL) | > 10 µM | 35.8 µM and 35.8 n.d. µM | 2.24 µM (≈ 1 µg/mL) | 8.95 µM (≈ 4 µg/mL) | 4.48 µM (≈ 2 µg/mL) | 8.95 µM (≈ 4 µg/mL) | 17.9 µM (≈ 8 µg/mL) | 35.8 µM (≈ 16 µg/mL) | 17.9 µM (≈ 8 µg/mL) | 35.8 µM (≈ 16 µg/mL) | 2.24 µM (≈ 1 µg/mL) | 8.95 µM (≈ 4 µg/mL) | 8.95 µM (≈ 4 µg/mL) | 8.95 µM (≈ 4 µg/mL) | 35.8 µM (≈ 16 µg/mL) | 35.8 µM (≈ 16 µg/mL) | MIC (M. smegmatis ATCC 700084; MS, three days, 37 °C): 35.8 n.d. µM; effect on plasma membrane permeability (crystal violet uptake) (S. aureus ATCC 29123): did not affect plasma membrane permeability; Conc.: lowest multiple of MBC with at least 70% inhibition of S. aureus viability (S. aureus ATCC 29213; MTT, 24 h): 2× MIC (2× MBC); Conc.: lowest multiple of MIC with at least 70% inhibition of S. aureus viability (S. aureus ATCC 29213; MTT, 24 h): 2× MIC (2× MBC); S. aureus Viability Inhibition (S. aureus ATCC 29213; at 2× MIC (2× MBC)): 94% and 94.6%; MBC [18]: 35.8 µM (≈ 16 µg/mL); MBC [19]: 35.8 µM (≈ 16 µg/mL) |
| CC(C)[C@H](NC(=O)c1cc(Cl)ccc1O)C(=O)Nc1ccc(C(F)(F)F)cc1 [3c, 5-Chloro-2-hydroxy-N-[(2S)-3-methyl-1-oxo-1-{[4-(trifluoromethyl)phenyl]amino}butan-2-yl]benzamide] | 0.973 | 0.934 | 1.081 | 77.1 µM (≈ 32 µg/mL) | > 10 µM | 77.1 n.d. µM | 2.41 µM (≈ 1 µg/mL) | 4.82 µM (≈ 2 µg/mL) | 4.82 µM (≈ 2 µg/mL) | 4.82 µM (≈ 2 µg/mL) | 38.6 µM (≈ 16 µg/mL) | 38.6 µM (≈ 16 µg/mL) | 38.6 µM (≈ 16 µg/mL) | 38.6 µM (≈ 16 µg/mL) | 4.82 µM (≈ 2 µg/mL) | 4.82 µM (≈ 2 µg/mL) | 4.82 µM (≈ 2 µg/mL) | 9.64 µM (≈ 4 µg/mL) | 38.6 µM (≈ 16 µg/mL) | 38.6 µM (≈ 16 µg/mL) | MIC (Bacillus cereus): 2.41 µM (≈ 1 µg/mL); MIC (Clostridium perfringens): 4.82 µM (≈ 2 µg/mL); MIC (Mycobacterium kansasii): 38.6 µM (≈ 16 µg/mL); MIC (M. smegmatis): 77.1 µM (≈ 32 µg/mL); MBC [18]: 38.6 µM (≈ 16 µg/mL); MBC [19]: 38.6 µM (≈ 16 µg/mL) |
| CN[C@H](CC(C)C)C(=O)N[C@H]1C(=O)N[C@@H](CC(N)=O)C(=O)N[C@H]2C(=O)N[C@H]3C(=O)N[C@H](C(=O)N[C@H](C(=O)O)c4cc(O)cc(O)c4-c4cc3ccc4O)[C@H](O)c3ccc(c(Cl)c3)Oc3cc2cc(c3O[C@@H]2O[C@H](CO)[C@@H](O)[C@H](O)[C@H]2O[C@H]2C[C@](C)(N)[C@H](O)[C@H](C)O2)Oc2ccc(cc2Cl)[C@H]1O [vancomycin] | – | – | – | – | – | – | – | – | – | – | – | – | – | – | – | – | – | – | – | – | MIC [20]: 2 µg/mL (≈ 1.38 µM) |

Reference: publication PMC9569995, “Study of Biological Activities and ADMET-Related Properties of Salicylanilide-Based Peptidomimetics” (International Journal of Molecular Sciences, 2022)
